Data taken from patent US10214519B2, “Phosphatidylinositol 3-kinase inhibitors” (Gilead Sciences, Inc., priority 2016, dated 2019).

Target: PI3Kβ (Homo sapiens (Human), UniProt P42338)
Assay: PI3K isoform TR-FRET enzymatic assay (PI3Kβ)
Type: biochemical
Details: 2× Km ATP, 30 minutes at 25° C.
In short: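 Heterodimeric recombinant PI3Kβ was incubated with compound 30 minutes at 25° C. Product was detected by TR-FRET competition with 10 nM labeled PIP3 for 35 nM Eu-GRP-1 PH domain after EDTA stop. Data were normalized to 1 μM wortmannin and DMSO, and IC50 was taken from a four-parameter fit.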

Sequence of PI3Kβ (P42338 whole entry, canonical isoform): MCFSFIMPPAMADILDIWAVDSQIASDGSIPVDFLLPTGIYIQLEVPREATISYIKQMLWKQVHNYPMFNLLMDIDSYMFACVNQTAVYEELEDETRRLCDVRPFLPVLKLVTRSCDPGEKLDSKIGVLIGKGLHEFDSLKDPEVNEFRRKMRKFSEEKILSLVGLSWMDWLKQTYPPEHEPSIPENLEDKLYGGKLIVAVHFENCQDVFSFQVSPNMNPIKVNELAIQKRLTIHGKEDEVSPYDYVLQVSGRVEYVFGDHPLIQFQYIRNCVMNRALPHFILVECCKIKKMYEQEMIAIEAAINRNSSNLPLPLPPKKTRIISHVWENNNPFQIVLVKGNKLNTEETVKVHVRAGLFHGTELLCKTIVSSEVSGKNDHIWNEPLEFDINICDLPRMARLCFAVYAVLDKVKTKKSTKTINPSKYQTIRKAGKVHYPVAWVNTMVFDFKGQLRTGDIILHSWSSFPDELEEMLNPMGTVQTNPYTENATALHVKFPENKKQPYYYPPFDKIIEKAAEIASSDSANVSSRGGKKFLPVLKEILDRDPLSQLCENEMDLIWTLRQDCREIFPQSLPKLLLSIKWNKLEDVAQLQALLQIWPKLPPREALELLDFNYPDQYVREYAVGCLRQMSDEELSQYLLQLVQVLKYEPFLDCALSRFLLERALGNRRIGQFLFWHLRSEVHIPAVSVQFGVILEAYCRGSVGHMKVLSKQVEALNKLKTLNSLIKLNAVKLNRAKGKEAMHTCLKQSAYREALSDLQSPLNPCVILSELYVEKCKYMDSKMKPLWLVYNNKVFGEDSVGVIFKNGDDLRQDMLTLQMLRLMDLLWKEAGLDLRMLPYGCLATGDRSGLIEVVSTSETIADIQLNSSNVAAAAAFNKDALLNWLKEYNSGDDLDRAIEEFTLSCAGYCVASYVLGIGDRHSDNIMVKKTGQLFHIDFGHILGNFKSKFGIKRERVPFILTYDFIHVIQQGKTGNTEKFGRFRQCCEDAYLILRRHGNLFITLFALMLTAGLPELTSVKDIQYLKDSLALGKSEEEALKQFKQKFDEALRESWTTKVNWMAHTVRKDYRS
Sequence of PI3Kβ (P27986 whole entry partner, canonical isoform): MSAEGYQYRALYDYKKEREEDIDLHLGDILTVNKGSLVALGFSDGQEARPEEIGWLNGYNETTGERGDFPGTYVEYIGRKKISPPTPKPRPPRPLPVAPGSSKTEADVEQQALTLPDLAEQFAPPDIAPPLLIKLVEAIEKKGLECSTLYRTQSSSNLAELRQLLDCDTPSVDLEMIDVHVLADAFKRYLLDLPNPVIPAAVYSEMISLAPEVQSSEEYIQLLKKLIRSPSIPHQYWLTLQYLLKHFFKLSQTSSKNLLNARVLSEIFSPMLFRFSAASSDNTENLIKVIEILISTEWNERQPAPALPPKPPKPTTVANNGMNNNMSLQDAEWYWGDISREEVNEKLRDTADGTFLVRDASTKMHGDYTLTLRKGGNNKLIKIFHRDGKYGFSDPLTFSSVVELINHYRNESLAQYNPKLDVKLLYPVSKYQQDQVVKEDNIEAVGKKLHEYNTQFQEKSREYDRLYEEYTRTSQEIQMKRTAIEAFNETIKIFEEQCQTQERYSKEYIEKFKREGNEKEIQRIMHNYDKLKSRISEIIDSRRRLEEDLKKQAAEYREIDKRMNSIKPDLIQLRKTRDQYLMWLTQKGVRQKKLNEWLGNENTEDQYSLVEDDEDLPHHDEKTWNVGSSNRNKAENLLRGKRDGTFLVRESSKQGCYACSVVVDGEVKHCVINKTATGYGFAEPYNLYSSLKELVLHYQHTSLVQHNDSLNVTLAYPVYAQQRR

| Structure (SMILES) | IC50 |
| --- | --- |
| Cc1cnc2c(C#N)cccc2c1-n1c(C)nc2c(-c3nnc[nH]3)cc(N3CCOCC3)cc21 (atropisomer, axis not shown) [Compound 374, 3-methyl-4-(2-methyl-6-morpholino-4-(4H-1,2,4-triazol-3-yl)-1H-benzo[d]imidazol-1-yl)quinoline-8-carbonitrile] | 0.022 µM |
| Cc1nc2c(-c3cscn3)cc(N3CCOCC3)cc2n1-c1ccnc2c(Cl)cccc12 [Example 270, 4-[3-(8-chloroquinolin-4-yl)-2-methyl-7-(1,3-thiazol-4-yl)benzimidazol-5-yl]morpholine] | 0.036 µM |
| Fc1ccc(F)c2c(-n3c(C4CC4)nc4c(-c5ncco5)cc(N5CCOCC5)cc43)ccnc12 [Example 231, 4-[2-cyclopropyl-3-(5,8-difluoroquinolin-4-yl)-7-(1,3-oxazol-2-yl)benzimidazol-5-yl]morpholine] | 0.016 µM |
| Fc1cccc2c(-n3c(C4CC4)nc4c(-c5cnc(Cl)[nH]5)cc(N5CCOCC5)cc43)ccnc12 [Example 287, 4-[7-(2-chloro-1H-imidazol-5-yl)-2-cyclopropyl-3-(8-fluoroquinolin-4-yl)benzimidazol-5-yl]morpholine] | 0.056 µM |
| Cc1cc(-n2cnc3c(-c4cnc[nH]4)cc(N4CCOCC4)cc32)c2c(Cl)ccc(Cl)c2n1 [Example 330] | 0.005 µM |
| Cc1nc2c(-c3cnc(Cl)[nH]3)cc(N3CCOCC3)cc2n1-c1ccnc2c(Cl)cccc12 [Example 278, 4-[7-(2-chloro-1H-imidazol-5-yl)-3-(8-chloroquinolin-4-yl)-2-methylbenzimidazol-5-yl]morpholine] | 0.004 µM |

The remaining lines, values ahead:

| IC50 | Structure (SMILES) |
| --- | --- |
| 2.8 µM | Cc1nc2c(-c3nnc[nH]3)cc(N3CCOCC3)cc2n1-c1ccnc2c(Cl)cccc12 (atropisomer, axis not shown) [Compound 360, 4-[3-(8-chloroquinolin-4-yl)-2-methyl-7-(4H-1,2,4-triazol-3-yl)benzimidazol-5-yl]morpholine] |
| 0.01 µM | CCCc1nc2c(-c3nnc[nH]3)cc(N3CCOCC3)cc2n1-c1ccnc2c(Cl)c(F)ccc12 [Example 34, 4-(1-(8-chloro-7-fluoroquinolin-4-yl)-2-propyl-4-(4H-1,2,4-triazol-3-yl)-1H-benzo[d]imidazol-6-yl)morpholine] |
| 0.013 µM | Cc1nc2c(-c3nnc[nH]3)cc(N3CCOCC3)cc2n1-c1ccnc2c(F)cccc12 [Example 140, 4-[3-(8-fluoroquinolin-4-yl)-2-methyl-7-(4H-1,2,4-triazol-3-yl)benzimidazol-5-yl]morpholine] |
| 0.013 µM | CCc1nc2c(-c3nnc[nH]3)cc(N3CCOCC3)cc2n1-c1c(Cl)cnc2c(Cl)cccc12 [Example 98, 4-[3-(3,8-dichloroquinolin-4-yl)-2-ethyl-7-(4H-1,2,4-triazol-3-yl)benzimidazol-5-yl]morpholine] |
| 0.51 µM | Cc1c[nH]c(-c2cc(N3CCOCC3)cc3c2nc(C)n3-c2ccnc3c(Cl)cccc23)n1 [Example 176, 4-[3-(8-chloroquinolin-4-yl)-2-methyl-7-(4-methyl-1H-imidazol-2-yl)benzimidazol-5-yl]morpholine] |
| 0.029 µM | CCc1nc2c(-c3nnc[nH]3)cc(N3CCOCC3)cc2n1-c1ccnc2ccccc12 [Example 107, 4-[2-ethyl-3-quinolin-4-yl-7-(4H-1,2,4-triazol-3-yl)benzimidazol-5-yl]morpholine] |
